Measured values published in patent US6300347A, “2-substituted 4,5-diaryl imidazoles” (Novartis AG, priority 1997, dated 2001).
pIC50: −log10 of the molar value.

Columns and labels:
p38 MAP kinase = target: T1, p38 MAP kinase (Mus musculus, UniProt P47811); experiment: p38 MAP kinase Assay (GST-ATF-2 phosphorylation, His-p38 MAP kinase); format: biochemical, murine; details: ATP 120 μM; substrate GST-ATF-2; 1 h at 37° C; read-out: IC50 for p38 MAP kinase inhibition
T1 construct: full length murine p38 MAP kinase; His tag; made in house; host or cells: E. coli
T1 sequence (P47811 whole entry): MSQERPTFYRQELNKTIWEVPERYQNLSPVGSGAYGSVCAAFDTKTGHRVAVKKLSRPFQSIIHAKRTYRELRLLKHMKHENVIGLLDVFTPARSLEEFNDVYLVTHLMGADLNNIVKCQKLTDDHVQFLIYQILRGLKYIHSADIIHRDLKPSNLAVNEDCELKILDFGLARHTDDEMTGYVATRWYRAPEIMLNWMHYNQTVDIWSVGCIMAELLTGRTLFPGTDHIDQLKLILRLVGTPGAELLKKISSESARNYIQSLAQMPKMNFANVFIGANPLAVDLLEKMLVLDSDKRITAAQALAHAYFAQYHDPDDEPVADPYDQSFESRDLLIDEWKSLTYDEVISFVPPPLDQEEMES
Description: The substrate (GST-ATF-2; a fusion protein comprising amino acids 1-109 of ATF-2 and the GST protein obtained by expression in E. coli) is coated onto the wells of microtiter plates (50 μl/well; 1 μg/ml in PBS/0.02% Na azide) overnight at 4° C. The following day, the microtiter plates are washed four times with PBS/0.5% Tween 20/0.02% Na azide and are blocked with PBS/2% BSA/0.02% Na Azide for 1 h at 37° C. Plates are washed again 4 times with PBS/0.5% Tween 20/0.02% Na azide. The kinase cascade reaction is then started by adding the following reactants in 10 μl aliquots to a final reaction volume of 50 μl.
1. Agents of the Invention titrated from 10 to 0.001 μM in 10-fold dilutions or solvent (DMSO) or H2 O.
2. Kinase buffer (5×); pH 7.4; 125 mM Hepes (Stock at 1M; Gibco #15630-056). […]
After 1 h at 37° C. the kinase reaction is terminated by washing the plates four times as previously described. Phosphorylated GST-ATF-2 is then detected by adding: […]
After step 1,2 and 3 the microtiter plates are washed four times with PBS/0.5% Tween 20/0.02% Na azide. After step 4, the plates are read in a Bio-Rad microplate reader in a dual wavelength mode (measurement filter 405 nm and reference filter 490 nm). The background value (without ATP) is subtracted and IC50 values are calculated using the Origin computer program (4 parameter logistic function).

[1] = tested on: TNF-α release from hPBMCs; experiment: Assay for Inhibition of TNF-α release from hPBMCs; format: cell-based; details: Homo sapiens, 3 h, IFNg (100 U/ml) and LPS, three hours, TNF-α by ELISA, read-out: IC50, suppression of TNF release
Description: Human peripheral blood mononuclear cells (hPBMCs) are prepared from the peripheral blood of healthy volunteers using ficoll-hypaque density separation accordinc to the method of Hansel et al., J. Imm. […] Cells are incubated with serial dilutions of the test compounds for 30 minutes at 37° C. prior to the addition of IFNg (100 U/ml) and LPS (5 mg/ml) and subsequently further incubated for three hours. Incubation is terminated by centrifugation at 1400 RPM for 10 min. TNF-α in the supernatant is measured using a commercial ELISA (Innotest hTNFa, available from Innogenetics N.V., Zwijnaarde, Belium). Agents of the Invention are tested at concentrations of from 0 to 10 mM.

TNF-α = experiment: Assay for Inhibition of TNF-α Production in LPS Stimulated Mice; format: in vivo; details: LPS 20 mg/kg i.v.; OF1 mice (female); plasma TNF 1 hour after LPS
Description: Assay for Inhibition of TNF-α Production in LPS Stimulated Mice
Injection of lipopolysaccharide (LPS) induces a rapid release of soluble tumour necrosis factor (TNF-α) into the periphery. This model is be used to analyse prospective blockers of TNF release in vivo.
LPS (20 mg/kg) is injected i.v. into OF1 mice (female, 8 week old). One (1) hour later blood is withdrawn from the animals and TNF levels are analysed in the plasma by an ELISA method using an antibody to TNF-α. […] Compounds to be evaluated are given either orally or s.c. 1 to 4 hours prior to the LPS injection. Inhibition of LPS-induced TNF-release is taken as the readout.

In the case of `Nc1nc(N)c(F)c(-c2nc(-c3ccc(F)cc3)c(-c3ccncc3)[nH]2)c1F` [Example 17, 4-(4-Fluorophenyl)-5-(4-pyridyl) 2-(2,6-diamino-3,5-difluoropyridinyl)imidazole], the pIC50 (p38 MAP kinase) was ~8.00, the pIC50 [1] was ~7.05 and the “inhibition of TNF production” value (TNF-α) was “about 80%”.
